Source: ChEMBL document CHEMBL5579901, “Discovery of Novel [1,2,4]Triazolo[1,5-a]pyrimidine Derivatives as Novel Potent S-Phase Kinase-Associated Protein 2 (SKP2) Inhibitors for the Treatment of Cancer” (J Med Chem, 2024)
Activity calls are given as the source filed them. The calls are words filed in the database; no cut-off is given here.

Tests used:
MGC-803 [1] = assay: Induction of cell cycle arrest in human MGC-803 cells assessed as cells at G0/G1 phase at 15 uM incubated for 12 hrs by PI staining based flow cytometry (reference value: 57.9%); type: functional
[2] = Clearance in Sprague-Dawley rat at 1 mg/kg, iv measured upto 24 hrs by LC/MS-MS analysis; type: ADME, organism-based; settings: in vivo
[3] = Half-life in Sprague-Dawley rat at 50 mg/kg, po measured upto 24 hrs by LC/MS-MS analysis; type: ADME, organism-based; settings: in vivo
PC-3 [4] = assay: Induction of cell cycle arrest in human PC-3 cells assessed as cells at G2/M phase at 15 uM incubated for 6 hrs by PI staining based flow cytometry (reference value: 21.4%); type: functional
MGC-803 [5] = assay: Induction of cell cycle arrest in human MGC-803 cells assessed as cells at G0/G1 phase at 15 uM incubated for 6 hrs by PI staining based flow cytometry (reference value: 57.9%); type: functional
MGC-803 [6] = assay: Inhibition of cell invasion in human MGC-803 cells incubated for 48 hrs by […]; type: functional, cell-based; settings: dose 2.5-7.5 µM
[7] = Toxicity against NOD-SCID mouse assessed as change in heart morphology at 25 to 50 mg/kg, IG administered for 21 days by H and E staining based assay; type: organism-based; settings: in vivo, po, 504 h, dose 25-50 mg/kg, time 21 day
[8] = biological target: Cyclin-dependent kinases regulatory subunit 1/S-phase kinase-associated protein 2 (Homo sapiens) (UniProt P61024+Q13309); assay: Inhibition of GST-tagged SKP2 (unknown origin) binding to His6-tagged CKS1 (unknown origin) incubated for 1 hr by pull down method; type: protein assay
Sequence of Cyclin-dependent kinases regulatory subunit 1/S-phase kinase-associated protein 2 (Homo sapiens) (P61024 2-79 limits assumed): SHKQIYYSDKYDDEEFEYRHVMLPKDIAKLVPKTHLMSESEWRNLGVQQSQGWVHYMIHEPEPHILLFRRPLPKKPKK
Sequence of Cyclin-dependent kinases regulatory subunit 1/S-phase kinase-associated protein 2 (Homo sapiens) (Q13309 whole entry partner): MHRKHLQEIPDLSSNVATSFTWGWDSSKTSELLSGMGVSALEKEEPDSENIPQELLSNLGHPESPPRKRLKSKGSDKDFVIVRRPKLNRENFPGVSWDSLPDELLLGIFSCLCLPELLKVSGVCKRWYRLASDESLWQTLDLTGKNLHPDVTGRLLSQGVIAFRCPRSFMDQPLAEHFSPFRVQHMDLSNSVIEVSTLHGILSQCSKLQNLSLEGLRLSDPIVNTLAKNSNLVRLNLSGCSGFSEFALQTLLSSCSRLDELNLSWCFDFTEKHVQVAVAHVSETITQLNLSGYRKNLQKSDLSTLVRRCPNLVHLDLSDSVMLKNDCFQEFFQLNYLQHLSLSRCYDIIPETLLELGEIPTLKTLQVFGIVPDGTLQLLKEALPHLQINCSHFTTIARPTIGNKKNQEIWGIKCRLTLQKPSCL

PC-3 [9] = assay: Induction of cell cycle arrest in human PC-3 cells assessed as cells at G0/G1 phase at 15 uM incubated for 36 hrs by PI staining based flow cytometry (reference value: 54.5%); type: functional
PC-3 [10] = assay: Induction of cell cycle arrest in human PC-3 cells assessed as cells at G2/M phase at 15 uM incubated for 36 hrs by PI staining based flow cytometry (reference value: 21.3%); type: functional
PC-3 [11] = assay: Inhibition of cell invasion in human PC-3 cells incubated for 48 hrs by […]; type: functional, cell-based; settings: dose 2.5-7.5 µM
MGC-803 [12] = assay: Inhibition of DNA synthesis in human MGC-803 cells incubated for 24 hrs by EdU staining based fluorescence microscopic analysis; type: functional, cell-based; settings: dose 2.5-7.5 µM
MGC-803 [13] = assay: Inhibition of cell migration in human MGC-803 cells incubated for 48 hrs by wound healing assay; type: functional, cell-based; settings: dose 2.5-7.5 µM
[14] = Toxicity against NOD-SCID mouse assessed as body weight loss at 25 to 50 mg/kg, IG administered for 21 days; type: organism-based; settings: in vivo, po, 504 h, dose 25-50 mg/kg, time 21 day
MGC-803 [15] = assay: Induction of cell cycle arrest in human MGC-803 cells assessed as cells at G2/M phase at 5 uM incubated for 36 hrs by PI staining based flow cytometry (reference value: 20.6%); type: functional
PC-3 [16] = assay: Upregulation of p21 protein expression in human PC-3 cells at 5 to 15 uM incubated for 48 hrs by Western blotting analysis; type: functional, cell-based; settings: dose 5-15 µM
[17] = MRT(infinity) in Sprague-Dawley rat at 50 mg/kg, po measured upto 24 hrs by LC/MS-MS analysis; type: ADME, organism-based; settings: in vivo
[18] = Half-life in Sprague-Dawley rat at 1 mg/kg, iv measured upto 24 hrs by LC/MS-MS analysis; type: ADME, organism-based; settings: in vivo
PC-3 [19] = assay: Inhibition of cell proliferation in human PC-3 cells incubated for 72 hrs by MTT assay; type: functional, cell-based; settings: PC-3, 72 h
PC-3 [20] = assay: Induction of cell cycle arrest in human PC-3 cells assessed as cells at S phase at 15 uM incubated for 48 hrs by PI staining based flow cytometry (reference value: 22.9%); type: functional
PC-3 [21] = assay: Induction of cell cycle arrest in human PC-3 cells assessed as cells at S phase at 5 uM incubated for 36 hrs by PI staining based flow cytometry (reference value: 22.8%); type: functional
[22] = Cmax in Sprague-Dawley rat at 50 mg/kg, po measured upto 24 hrs by LC/MS-MS analysis; type: ADME, organism-based; settings: in vivo
MGC-803 [23] = assay: Upregulation of p27 protein expression in human MGC-803 cells at 15 uM by Western blotting analysis; type: functional, cell-based; settings: time 6-48 hrs, TDE = time-dependent effect
MGC-803 [24] = assay: Inhibition of cell proliferation in human MGC-803 cells at 2 to 50 uM by MTT assay; type: functional, cell-based; settings: dose 2-50 µM, time 24-72 hrs, TDE = time-dependent effect
[25] = Toxicity against NOD-SCID mouse assessed as change in liver morphology at 25 to 50 mg/kg, IG administered for 21 days by H and E staining based assay; type: organism-based; settings: in vivo, po, 504 h, dose 25-50 mg/kg, time 21 day
PC-3 [26] = assay: Upregulation of p27 protein expression in human PC-3 cells at 5 to 15 uM incubated for 48 hrs by Western blotting analysis; type: functional, cell-based; settings: dose 5-15 µM
PC-3 [27] = assay: Induction of cell cycle arrest in human PC-3 cells assessed as cells at G2/M phase at 5 uM incubated for 36 hrs by PI staining based flow cytometry (reference value: 21.3%); type: functional
PC-3 [28] = assay: Upregulation of p27 protein expression in human PC-3 cells at 15 uM by Western blotting analysis; type: functional, cell-based; settings: time 6-48 hrs, TDE = time-dependent effect
MGC-803 [29] = assay: Induction of cell cycle arrest in human MGC-803 cells assessed as cells at G0/G1 phase at 5 uM incubated for 36 hrs by PI staining based flow cytometry (reference value: 57.1%); type: functional
PC-3 [30] = assay: Induction of cell cycle arrest in human PC-3 cells assessed as cells at S phase at 15 uM incubated for 6 hrs by PI staining based flow cytometry (reference value: 22.9%); type: functional
MGC-803 [31] = assay: Antitumor activity against human MGC-803 cells xenografted in IG dosed NOD-SCID mouse assessed as inhibition of tumor proliferation administered for 21 days; type: functional, organism-based; settings: dose 25-50 mg/kg, time 21.0 day
MGC-803 [32] = assay: Induction of cell cycle arrest in human MGC-803 cells assessed as cells at G0/G1 phase at 15 uM incubated for 24 hrs by PI staining based flow cytometry (reference value: 57.9%); type: functional
MGC-803 [33] = assay: Induction of cell cycle arrest in human MGC-803 cells assessed as cells at G2/M phase at 7.5 uM incubated for 36 hrs by PI staining based flow cytometry (reference value: 20.6%); type: functional
MGC-803 [34] = assay: Induction of cell cycle arrest in human MGC-803 cells assessed as cells at S phase at 15 uM incubated for 48 hrs by PI staining based flow cytometry (reference value: 19.6%); type: functional
MGC-803 [35] = assay: Induction of cell cycle arrest in human MGC-803 cells assessed as cells at S phase at 5 uM incubated for 36 hrs by PI staining based flow cytometry (reference value: 18.2%); type: functional
MGC-803 [36] = assay: Induction of cell cycle arrest in human MGC-803 cells assessed as cells at S phase at 7.5 uM incubated for 36 hrs by PI staining based flow cytometry (reference value: 18.2%); type: functional
[37] = AUCinfinity in Sprague-Dawley rat at 50 mg/kg, po measured upto 24 hrs by LC/MS-MS analysis; type: ADME, organism-based; settings: in vivo
PC-3 [38] = assay: Induction of cell cycle arrest in human PC-3 cells assessed as cells at S phase at 15 uM incubated for 36 hrs by PI staining based flow cytometry (reference value: 22.8%); type: functional
MGC-803 [39] = assay: Inhibition of cell proliferation in human MGC-803 cells incubated for 72 hrs by MTT assay; type: functional, cell-based; settings: MGC-803, 72 h

CL [2]: 24 mL/min/kg | half-life [3]: 9.1 h | inhibition [8]: Active | MRT inf [17]: 10.2 h | t1/2 [18]: 1.49 h | IC50 (PC-3 [19]): 11.7 µM | Cmax [22]: 168 ng/mL | AUC(0-inf) [37]: 1070 ng·h/mL | IC50 (MGC-803 [39]): 10.8 µM
SMILES: COc1ccc(-c2cc(C)nc3nc(SCc4ccc(Br)cc4)nn23)c(OC)c1
Activity (MGC-803 [1]): 44% | Activity (PC-3 [4]): 20.3% | Activity (MGC-803 [5]): 49.7% | inhibition (MGC-803 [6]): Dose-Dependent Effect | Activity [7]: Non-Toxic | Activity (PC-3 [9]): 30.1% | Activity (PC-3 [10]): 16.3% | inhibition (PC-3 [11]): Dose-Dependent Effect | inhibition (MGC-803 [12]): Dose-Dependent Effect | inhibition (MGC-803 [13]): Dose-Dependent Effect | Activity [14]: Non-Toxic | Activity (MGC-803 [15]): 23.2% | Activity (PC-3 [16]): Active | Activity (PC-3 [20]): 39.8% | Activity (PC-3 [21]): 28.1% | Activity (MGC-803 [23]): Tde | inhibition (MGC-803 [24]): Tde | Activity [25]: Non-Toxic | Activity (PC-3 [26]): Active | Activity (PC-3 [27]): 19.9% | Activity (PC-3 [28]): Tde | Activity (MGC-803 [29]): 49.8% | Activity (PC-3 [30]): 26.7% | Activity (MGC-803 [31]): Dose-Dependent Effect | Activity (MGC-803 [32]): 40.4% | Activity (MGC-803 [33]): 18.7% | Activity (MGC-803 [34]): 37.3% | Activity (MGC-803 [35]): 26.9% | Activity (MGC-803 [36]): 35.8% | Activity (PC-3 [38]): 44.3%
